Data: patent US4826815A, “Renin inhibiting compounds” (Abbott Laboratories, priority 1987, dated 1989)

target: T1, human renal renin (Homo sapiens, UniProt P00797); test: In vitro inhibition of human renal renin; angiotensin I formed measured by radioimmunoassay; format: biochemical; conditions: @ 10^-5; human renin substrate (angiotensinogen), 37° C., pH 6.0
T1 construct: human renal renin, free from acid proteolytic activity; from tissue
T1 sequence (P00797 67-406): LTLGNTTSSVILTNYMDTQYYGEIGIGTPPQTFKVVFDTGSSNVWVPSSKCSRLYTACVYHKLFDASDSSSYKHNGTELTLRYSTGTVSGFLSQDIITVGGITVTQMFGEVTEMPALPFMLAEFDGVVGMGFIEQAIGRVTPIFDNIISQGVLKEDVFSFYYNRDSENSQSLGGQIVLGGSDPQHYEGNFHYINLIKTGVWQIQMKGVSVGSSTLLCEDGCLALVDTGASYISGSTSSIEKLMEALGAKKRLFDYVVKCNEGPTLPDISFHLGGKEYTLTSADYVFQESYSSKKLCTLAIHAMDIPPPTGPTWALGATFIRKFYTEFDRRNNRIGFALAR
Method: At the end of the incubation, the amount of angiotensin I formed is measured by radioimmunoassay and the percent inhibition or renin is calculated.

SMILES | Inhibition [%]
CC(C)CC(NC(=O)C(C)NC(=O)C(Cc1ccccc1)NC(=O)OC(C)(C)C)C(O)CSc1ccccc1 (stereo not drawn) [Example 25, Boc-Phe-Ala amide of 3-amino-2-hydroxy-5-methyl-1 phenylmercaptohexane] | 56
CC(C)CC(NC(=O)C(C)NC(=O)C(Cc1ccccc1)NC(=O)OC(C)(C)C)C(O)CSCc1ccccc1 (stereo not drawn) [Example 28, Boc-Phe-Ala amide of 3 amino 1-benzylmercapto-2 hydroxy-5-methylhexane] | 57
CC(C)CC(NC(=O)C(C)NC(=O)C(Cc1ccccc1)NC(=O)OC(C)(C)C)C(O)CSC1CCCCC1 (stereo not drawn) [Example 29, Boc-Phe-Ala amide of 3-amino-1-cyclohexyl mercapto-2-hydroxy-5-methylhexane] | 94
CC(C)CC(NC(=O)C(C)NC(=O)C(Cc1ccccc1)NC(=O)OC(C)(C)C)C(O)CNc1ccccc1 (stereo not drawn) [Example 31, Boc-Phe-Ala amide of 3-amino-2-hydroxy-5-methyl-1-phenylaminohexane] | 31
CC(C)CC(NC(=O)C(C)NC(=O)C(Cc1ccccc1)NC(=O)OC(C)(C)C)C(O)C[S+]([O-])C1CCCCC1 (stereo not drawn) [Example 55, Boc-Phe Ala amide of 3-amino-1-cyclohexyl sulfinyl-2-hydroxy-5-methylhexane] | 46

same assay, conditions: @ 10^-6; human renin substrate (angiotensinogen), 37° C., pH 6.0

SMILES | Inhibition [%]
CC(C)CC(NC(=O)C(Cc1cnc[nH]1)NC(=O)C(Cc1ccccc1)NC(=O)OC(C)(C)C)C(O)CSc1ccccc1 (stereo not drawn) [Example 23, Boc-Phe-His amide of 3-amino-2 hydroxy-5-methyl 1-phenylmercaptohexane] | 56
CC(C)CC(=O)NCC(O)C(CC(C)C)NC(=O)C(Cc1cnc[nH]1)NC(=O)C(Cc1ccccc1)NC(=O)OC(C)(C)C (stereo not drawn) [Example 79, Boc-Phe-His Amide of 3-Amino-2- hydroxy-1-(isovalerylamino)-5-methylhexane] | 63

same assay, conditions: @ 10^-7; human renin substrate (angiotensinogen), 37° C., pH 6.0

SMILES | Inhibition [%]
CC(C)(C)OC(=O)NC(Cc1ccccc1)C(=O)NC(Cc1cnc[nH]1)C(=O)NC(Cc1ccccc1)C(O)CSC1CCCCC1 (stereo not drawn) [Example 50, Boc-Phe-His amide of 3-amino-1-cyclohexylmercapto-2-hydroxy-4-phenylbutane] | 89
O=C(NC(Cc1cnc[nH]1)C(=O)NC(CC1CCCCC1)C(O)CSC1CCCCC1)C(Cc1ccccc1)Cc1ccccc1 (stereo not drawn) [Example 81, Dba-His Amide of 3-amino-4-cyclohexyl-1-cyclohexylmercapto-2-hydroxybutane] | 71

same assay, conditions: @ 10^-8; human renin substrate (angiotensinogen), 37° C., pH 6.0

SMILES | Inhibition [%]
CC(C)SCC(O)C(CC1CCCCC1)NC(=O)C(Cc1cnc[nH]1)NC(=O)C(Cc1ccccc1)NC(=O)OC(C)(C)C (stereo not drawn) [Example 51, Boc-Phe-His amide of 3 amino-4-cyclohexyl-2-hydroxy-1-isopropylmercaptobutane] | 80
CC(C)(C)OC(=O)NC(Cc1ccccc1)C(=O)NC(Cc1cnc[nH]1)C(=O)NC(CC1CCCCC1)C(O)CS(=O)(=O)C1CCCCC1 (stereo not drawn) [Example 54, Boc-Phe-His amide of 3 amino-4-cyclohexyl-1-cyclohexylsulfonyl-2-hydroxybutane] | 81
CC(C)(C)CC(=O)NC(Cc1ccccc1)C(=O)NC(Cc1c[nH]cn1)C(=O)NC(CC1CCCCC1)C(O)CSC1CCCCC1 (stereo not drawn) [Example 82, Tba-Phe-His-Amide of 3-amino-4-cyclohexyl-1-cyclohexylmercapto-2-hydroxybutane] | 82
